From patent US20260376293A1, “METHODS FOR STUDYING GPR158 PHARMACOLOGY AND IDENTIFICATION OF ITS LIGANDS” (UNIVERSITY OF FLORIDA RESEARCH FOUNDATION, INCORPORATED, priority 2022, published 2026)

Experiments:
GPR158 = biological target: T1, GPR158 (Homo sapiens, UniProt Q5T848); assay: cADDIS fluorescence-based cAMP assay, HEK293T/17 cells; type: cell-based; conditions: 500 μM Gly, 15 min, forskolin; GPR158-RGS7/Gβ5, HEK293T/17
T1 construct: expressed in transfected cells; host or cells: HEK293T/17
T1 sequence (Q5T848 24-1215): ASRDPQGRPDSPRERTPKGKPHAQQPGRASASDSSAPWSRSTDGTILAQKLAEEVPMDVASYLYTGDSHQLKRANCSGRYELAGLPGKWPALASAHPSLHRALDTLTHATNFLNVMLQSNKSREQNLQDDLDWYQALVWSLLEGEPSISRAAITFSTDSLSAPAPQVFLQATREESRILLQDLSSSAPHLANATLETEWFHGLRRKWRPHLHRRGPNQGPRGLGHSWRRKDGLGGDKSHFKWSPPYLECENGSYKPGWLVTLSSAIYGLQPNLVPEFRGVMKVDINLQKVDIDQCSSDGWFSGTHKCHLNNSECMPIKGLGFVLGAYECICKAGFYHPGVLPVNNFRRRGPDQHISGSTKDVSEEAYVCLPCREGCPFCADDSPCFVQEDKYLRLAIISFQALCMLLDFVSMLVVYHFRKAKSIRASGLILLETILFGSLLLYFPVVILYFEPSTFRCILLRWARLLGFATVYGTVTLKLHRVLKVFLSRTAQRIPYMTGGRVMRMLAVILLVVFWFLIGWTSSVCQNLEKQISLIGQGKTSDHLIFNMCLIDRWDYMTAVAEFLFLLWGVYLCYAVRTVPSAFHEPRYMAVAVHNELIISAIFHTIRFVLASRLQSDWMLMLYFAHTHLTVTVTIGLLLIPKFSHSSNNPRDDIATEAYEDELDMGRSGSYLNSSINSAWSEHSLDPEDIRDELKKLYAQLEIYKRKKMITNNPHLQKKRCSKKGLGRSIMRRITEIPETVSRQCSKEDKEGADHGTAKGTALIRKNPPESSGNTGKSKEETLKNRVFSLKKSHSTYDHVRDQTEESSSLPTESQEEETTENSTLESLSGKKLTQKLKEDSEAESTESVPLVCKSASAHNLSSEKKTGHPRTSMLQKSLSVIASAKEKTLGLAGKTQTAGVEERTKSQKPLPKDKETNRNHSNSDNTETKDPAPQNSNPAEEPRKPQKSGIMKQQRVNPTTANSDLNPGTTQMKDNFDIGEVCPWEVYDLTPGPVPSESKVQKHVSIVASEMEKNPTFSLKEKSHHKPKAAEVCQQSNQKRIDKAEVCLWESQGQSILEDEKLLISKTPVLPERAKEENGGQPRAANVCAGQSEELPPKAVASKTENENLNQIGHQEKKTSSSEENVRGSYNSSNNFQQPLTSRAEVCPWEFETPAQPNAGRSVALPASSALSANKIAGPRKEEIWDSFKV
T1 sequence (P49802 1-495 partner): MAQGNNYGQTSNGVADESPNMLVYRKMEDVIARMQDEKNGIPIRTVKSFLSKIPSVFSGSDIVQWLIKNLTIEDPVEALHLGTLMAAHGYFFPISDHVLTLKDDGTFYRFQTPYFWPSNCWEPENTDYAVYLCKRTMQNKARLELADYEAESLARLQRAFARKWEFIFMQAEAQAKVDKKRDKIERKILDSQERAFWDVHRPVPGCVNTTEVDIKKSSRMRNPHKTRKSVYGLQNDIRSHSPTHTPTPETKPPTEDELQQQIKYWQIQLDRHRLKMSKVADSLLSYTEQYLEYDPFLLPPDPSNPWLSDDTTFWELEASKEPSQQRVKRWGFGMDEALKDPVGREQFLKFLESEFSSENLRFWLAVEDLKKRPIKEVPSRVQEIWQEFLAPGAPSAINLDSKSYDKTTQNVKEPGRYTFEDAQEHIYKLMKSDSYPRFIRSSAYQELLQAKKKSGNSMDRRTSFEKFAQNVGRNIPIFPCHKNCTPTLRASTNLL
T1 sequence (O14775 1-395 partner): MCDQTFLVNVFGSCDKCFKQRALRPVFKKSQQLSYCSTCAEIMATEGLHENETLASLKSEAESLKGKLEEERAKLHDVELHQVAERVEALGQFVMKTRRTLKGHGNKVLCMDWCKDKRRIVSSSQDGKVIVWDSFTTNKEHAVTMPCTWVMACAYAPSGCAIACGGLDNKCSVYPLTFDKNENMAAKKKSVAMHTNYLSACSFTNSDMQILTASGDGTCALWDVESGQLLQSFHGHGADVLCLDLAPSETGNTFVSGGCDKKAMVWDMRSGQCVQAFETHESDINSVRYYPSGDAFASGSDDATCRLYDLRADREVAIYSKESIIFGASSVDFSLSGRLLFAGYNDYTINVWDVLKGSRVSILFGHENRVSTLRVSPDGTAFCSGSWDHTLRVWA
Experimental: B. Effect of Gly on cAMP levels measured using CADDIS assay in HEK293T/17 cells (Gly conc. 500 μM). Binding of Gly to Cache domain of GPR158 blocks the GAP activity of GPR158-RGS7/Gβ5 complex on Gαo, resulting in lowering of CAMP levels. Data shown here represent the normalized fluorescence intensity upon Gly treatment (Mean±SEM from 3 independent experiments, Unpaired t-test, **p=0.0016)
In an effort to study the modulatory effects of Gly on CAMP through GPR158, the inventors took advantage of a fluorescence-based cAMP sensor cADDIS (Montana molecular) which involves Bacmam virus-based transduction of sensor into the cells (FIG. 17A).
Briefly, HEK293T/17 cells were co-transfected with plasmids for GPR158, RGS7 and Gβ5 (150 μg/ml, GPR158: RGS7: Gβ5:4:1:1) by electroporation (Maxcyte). […] Before Glycine treatment, baseline fluorescence intensity was recorded using a fluorescence intensity module (FI Ex: 485 nm, Em: 520 nm) in Pherastar FSX microplate reader (BMG Labtech) followed by forskolin treatment for 15 min. Subsequently, the cells were treated with 500 μM Gly and fluorescence intensity was recorded. […]
The cADDIS assay for Gαi results in increase in fluorescence when CAMP is decreasing in the cells after drug treatment.

[1] = system: stress-induced depressive rat; conditions: cited from earlier work

Row | cADDIS fluorescence change (cAMP decrease) (GPR158) | SMILES | antidepressant effect [1]
1 | significant increase in fluorescence | NCC(=O)O [glycine] | –
2 | – | NCCS(=O)(=O)O [taurine, 2-aminoethanesulfonic acid] | antidepressant effect
